Laboratory results reported in ChEMBL document CHEMBL3286312, “Synthesis and structure-activity relationships of guaiane-type sesquiterpene lactone derivatives with respect to inhibiting NO production in lipopolysaccharide-induced RAW 264.7 macrophages” (Eur J Med Chem, 2014).

What was measured:
RAW264.7 [1] = test: Antiinflammatory activity against mouse RAW264.7 cells assessed as inhibition of LPS-induced NO production at 25 uM after 18 hrs by Griess method relative to control; format: functional; conditions: RAW264.7, 18 h
[2] = Cytotoxicity against mouse RAW264.7 cells assessed as cell survival rate up to 25 uM after 18 hrs by MTT assay relative to control; format: cell-based; conditions: read-out: Survival
RAW264.7 [3] = test: Antiinflammatory activity against mouse RAW264.7 cells assessed as inhibition of LPS-induced NO production at after 18 hrs by Griess method relative to control; format: functional, cell-based; conditions: RAW264.7, 18 h
RAW264.7 [4] = test: Cytotoxicity against mouse RAW264.7 cells assessed as reduction in cell survival rate after 18 hrs by MTT assay relative to control; format: cell-based; conditions: RAW264.7, 18 h

| SMILES | inhibition at 25 µM (RAW264.7 [1]) [%] | viability at 18 h [2] [%] | IC50 (RAW264.7 [3]) [µM] | IC50 (RAW264.7 [4]) [µM] |
| --- | --- | --- | --- | --- |
| CC1=C2C(C[C@@H]1OC(=O)/C=C/c1ccc([N+](=O)[O-])cc1)[C@](C)(O)CC[C@H]1[C@H](C)C(=O)O[C@H]21 (stereo partly specified) | 45 | 92.5 | – | – |
| CCCCCc1ccc(C(=O)O[C@H]2CC3C(=C2C)[C@H]2OC(=O)[C@@H](C)[C@@H]2CC[C@@]3(C)O)cc1 (stereo partly specified) | 29.8 | 79.3 | – | – |
| CC1=C2C(C[C@@H]1OC(=O)/C=C/c1ccc(F)cc1)[C@](C)(O)CC[C@H]1[C@H](C)C(=O)O[C@H]21 (stereo partly specified) | 31.6 | 100 | – | – |
| CC1=C2C(C[C@@H]1OC(=O)c1ccc3ccccc3c1)[C@](C)(O)CC[C@H]1[C@H](C)C(=O)O[C@H]21 (stereo partly specified) | 68.8 | 100 | 25.7 | 89.4 |
| CC1=C2C(C[C@@H]1OC(=O)c1ccc([N+](=O)[O-])cc1)[C@](C)(O)CC[C@H]1[C@H](C)C(=O)O[C@H]21 (stereo partly specified) | 1.8 | 100 | – | – |
| CC1=C2C(C[C@@H]1OC(=O)c1ccc(Br)cc1)[C@](C)(O)CC[C@H]1[C@H](C)C(=O)O[C@H]21 (stereo partly specified) | 28.1 | 98.1 | – | – |
| CC(=O)O[C@]1(C)CC[C@H]2[C@H](C)C(=O)O[C@@H]2C2=C(C)[C@@H](O)CC21 (stereo partly specified) | 0 | 100 | – | – |
| CC1=C2C(CC1=O)[C@](C)(O)CC[C@H]1[C@H](C)C(=O)O[C@H]21 (stereo partly specified) | 0 | 100 | – | – |
| CCc1ccc(C(=O)O[C@H]2CC3C(=C2C)[C@H]2OC(=O)[C@@H](C)[C@@H]2CC[C@@]3(C)O)cc1 (stereo partly specified) | 26.3 | 85.2 | – | – |
| CC1=C2C(C[C@@H]1OC(=O)c1cccs1)[C@](C)(O)CC[C@H]1[C@H](C)C(=O)O[C@H]21 (stereo partly specified) | 0 | 100 | – | – |
| CC1=C2C(C[C@@H]1OC(=O)/C=C/c1ccc(Br)cc1)[C@](C)(O)CC[C@H]1[C@H](C)C(=O)O[C@H]21 (stereo partly specified) | 85.2 | 97.8 | 18.3 | 60.2 |
| CC1=C2C(C[C@@H]1OC(=O)c1ccco1)[C@](C)(O)CC[C@H]1[C@H](C)C(=O)O[C@H]21 (stereo partly specified) | 2.2 | 100 | – | – |
| COc1ccc(/C=C/C(=O)O[C@H]2CC3C(=C2C)[C@H]2OC(=O)[C@@H](C)[C@@H]2CC[C@@]3(C)O)cc1 (stereo partly specified) | 19.3 | 100 | – | – |
| CC1=C2C(C[C@@H]1OC(=O)c1ccc(OC(F)(F)F)cc1)[C@](C)(O)CC[C@H]1[C@H](C)C(=O)O[C@H]21 (stereo partly specified) | 30.6 | 97.5 | – | – |
| CC1=C2C(C[C@@H]1OC(=O)c1ccc(C(C)C)cc1)[C@](C)(O)CC[C@H]1[C@H](C)C(=O)O[C@H]21 (stereo partly specified) | 53.3 | 74.7 | – | – |
| CC1=C2C(C[C@@H]1OC(=O)c1ccc(I)cc1)[C@](C)(O)CC[C@H]1[C@H](C)C(=O)O[C@H]21 (stereo partly specified) | 46.5 | 93 | – | – |
| CC1=C2C(C[C@@H]1OC(=O)/C=C/c1ccc(C#N)cc1)[C@](C)(O)CC[C@H]1[C@H](C)C(=O)O[C@H]21 (stereo partly specified) | 31.4 | 100 | – | – |
| CC1=C2C(C[C@@H]1OC(=O)c1cccnc1)[C@](C)(O)CC[C@H]1[C@H](C)C(=O)O[C@H]21 (stereo partly specified) | 6.1 | 86.9 | – | – |
| CC1=C2C(C[C@@H]1OC(=O)c1ccsc1)[C@](C)(O)CC[C@H]1[C@H](C)C(=O)O[C@H]21 (stereo partly specified) | 6.7 | 93.9 | – | – |
| CC1=C2C(C[C@@H]1OC(=O)c1cccc3ccccc13)[C@](C)(O)CC[C@H]1[C@H](C)C(=O)O[C@H]21 (stereo partly specified) | 79.6 | 67.4 | 6.98 | 7.52 |
| CC1=C2C(C[C@@H]1OC(=O)c1ccc3ncccc3c1)[C@](C)(O)CC[C@H]1[C@H](C)C(=O)O[C@H]21 (stereo partly specified) | 23.2 | 100 | – | – |

| SMILES | inhibition at 25 µM (RAW264.7 [1]) [%] | viability at 18 h [2] [%] | IC50 (RAW264.7 [3]) [µM] | IC50 (RAW264.7 [4]) [µM] |
| --- | --- | --- | --- | --- |
| CC1=C2C(C[C@@H]1OC(=O)c1ccc(C(F)(F)F)cc1)[C@](C)(O)CC[C@H]1[C@H](C)C(=O)O[C@H]21 (stereo partly specified) | 20.4 | 100 | – | – |
| CC1=C2C(C[C@@H]1OC(=O)c1ccccn1)[C@](C)(O)CC[C@H]1[C@H](C)C(=O)O[C@H]21 (stereo partly specified) | 0 | 100 | – | – |
| CC(=O)O[C@]1(C)CC[C@H]2[C@H](C)C(=O)O[C@@H]2C2=C(C)C(=O)CC21 (stereo partly specified) | 6.9 | 100 | – | – |
| N=C(N)NN [PIMAGEDINE] | 83.8 | 100 | 8.68 | – |
| CCCc1ccc(C(=O)O[C@H]2CC3C(=C2C)[C@H]2OC(=O)[C@@H](C)[C@@H]2CC[C@@]3(C)O)cc1 (stereo partly specified) | 30.6 | 73.4 | – | – |
| CC1=C2C(C[C@@H]1OC(=O)/C=C/c1ccc(C(F)(F)F)cc1)[C@](C)(O)CC[C@H]1[C@H](C)C(=O)O[C@H]21 (stereo partly specified) | 75.9 | 100 | 17.4 | 54.9 |
| CCCCc1ccc(C(=O)O[C@H]2CC3C(=C2C)[C@H]2OC(=O)[C@@H](C)[C@@H]2CC[C@@]3(C)O)cc1 (stereo partly specified) | 33.2 | 72.6 | – | – |
| CC1=C2C(C[C@@H]1OC(=O)c1ccc(C#N)cc1)[C@](C)(O)CC[C@H]1[C@H](C)C(=O)O[C@H]21 (stereo partly specified) | 6.6 | 100 | – | – |
| CC1=C2C(C[C@@H]1OC(=O)c1ccc(C)cc1)[C@](C)(O)CC[C@H]1[C@H](C)C(=O)O[C@H]21 (stereo partly specified) | 21.2 | 100 | – | – |
| CC1=C2C(C[C@@H]1O)[C@](C)(O)CC[C@H]1[C@H](C)C(=O)O[C@H]21 (stereo partly specified) | 0 | 100 | – | – |
| CCCOc1ccc(/C=C/C(=O)O[C@H]2CC3C(=C2C)[C@H]2OC(=O)[C@@H](C)[C@@H]2CC[C@@]3(C)O)cc1 (stereo partly specified) | 19.3 | 43.1 | – | – |
| CC1=C2C(C[C@@H]1OC(=O)/C=C/c1ccc(C)cc1)[C@](C)(O)CC[C@H]1[C@H](C)C(=O)O[C@H]21 (stereo partly specified) | 58.8 | 100 | 29 | 76.5 |
| CCOc1ccc(/C=C/C(=O)O[C@H]2CC3C(=C2C)[C@H]2OC(=O)[C@@H](C)[C@@H]2CC[C@@]3(C)O)cc1 (stereo partly specified) | 26.9 | 35.6 | – | – |
| CC1=C2C(C[C@@H]1OC(=O)/C=C/c1ccc(Cl)cc1)[C@](C)(O)CC[C@H]1[C@H](C)C(=O)O[C@H]21 (stereo partly specified) | 82 | 100 | 22.3 | 59.2 |
| CC1=C2C(C[C@@H]1OC(=O)c1ccc(Cl)cc1)[C@](C)(O)CC[C@H]1[C@H](C)C(=O)O[C@H]21 (stereo partly specified) | 19.6 | 100 | – | – |
| CC1=C2C(C[C@@H]1OC(=O)/C=C/c1ccc(N(C)C)cc1)[C@](C)(O)CC[C@H]1[C@H](C)C(=O)O[C@H]21 (stereo partly specified) | 44.5 | 100 | – | – |
| CC1=C2C(C[C@@H]1OC(=O)c1ccc(C(C)(C)C)cc1)[C@](C)(O)CC[C@H]1[C@H](C)C(=O)O[C@H]21 (stereo partly specified) | 76.3 | 52.1 | 14.8 | 29.1 |
| COc1ccc(C(=O)O[C@H]2CC3C(=C2C)[C@H]2OC(=O)[C@@H](C)[C@@H]2CC[C@@]3(C)O)cc1 (stereo partly specified) | 6.6 | 98 | – | – |
| CSc1ccc(/C=C/C(=O)O[C@H]2CC3C(=C2C)[C@H]2OC(=O)[C@@H](C)[C@@H]2CC[C@@]3(C)O)cc1 (stereo partly specified) | 67.4 | 100 | 27.2 | > 100 |
| CC1=C2C(C[C@@H]1OC(=O)c1ccc(F)cc1)[C@](C)(O)CC[C@H]1[C@H](C)C(=O)O[C@H]21 (stereo partly specified) | 19.4 | 100 | – | – |
| CC1=C2C(C[C@@H]1OC(=O)c1ccncc1)[C@](C)(O)CC[C@H]1[C@H](C)C(=O)O[C@H]21 (stereo partly specified) | 2 | 100 | – | – |
